Assay results as given in patent publication US10392368B2, “Pyrazolo and triazolo bicyclic compounds as JAK kinase inhibitors” (THERAVANCE BIOPHARMA R&D IP, LLC, priority 2017, dated 2019).

Experiments:
[1] = biological target: T1, JAK1 (Homo sapiens, UniProt P23458); assay: Biochemical JAK1 kinase assay (LanthaScreen); conditions: for Ki: read-out: JAK 1 (pKi) (converted)
T1 construct: GST; purchased Life Technologies
Summary of the method: (§1)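 TR-FRET read-out: terbium anti-pSTAT1 (pTyr701) antibody, 2 nM, with 10 mM EDTA quench, emission ratio 520/495 nm. GST-JAK phosphorylates GFP-STAT1 peptide for 1 h at ambient temperature after 1 h compound pre-incubation. pIC50 from dose-response converted to pKi by Cheng-Prusoff.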

[2] = test system: IL-2 stimulated pSTAT5 in Tall-1 T cells; assay: Cellular JAK3 potency assay: inhibition of IL-2 stimulated pSTAT5 in Tall-1 T cells; type: cell-based, human; conditions: for Tall-1 (pIC50): IL-2 stimulated pSTAT5, Tall-1 T cells; for IC50: Homo sapiens, TALL-1, IL-2 stimulated pSTAT5, Tall-1 T cells, read-out: Tall-1 (pIC50) (converted)
Summary of the method: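 Tall-1 human T cells (45,000/well) in phenol red-free DMEM with 10% FBS were preincubated with compound 1 h at 37 °C, then stimulated with IL-2 (final 300 ng/ml) for 30 min. Lysate pSTAT5 read by AlphaLisa; IC50 from inhibition curves, reported as pIC50 (mean±SD).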

[3] = biological target: T2, JAK3 (Homo sapiens, UniProt P52333); assay: Biochemical JAK3 kinase assay (LanthaScreen); parameters: GST; purchased Life Technologies; conditions: for JAK3 (pKi)-JAK1 (pKi): selectivity JAK3 over JAK1, difference of pKi; for Ki: read-out: JAK 3 (pKi) (converted)
T2 sequence (P52333 1-1124): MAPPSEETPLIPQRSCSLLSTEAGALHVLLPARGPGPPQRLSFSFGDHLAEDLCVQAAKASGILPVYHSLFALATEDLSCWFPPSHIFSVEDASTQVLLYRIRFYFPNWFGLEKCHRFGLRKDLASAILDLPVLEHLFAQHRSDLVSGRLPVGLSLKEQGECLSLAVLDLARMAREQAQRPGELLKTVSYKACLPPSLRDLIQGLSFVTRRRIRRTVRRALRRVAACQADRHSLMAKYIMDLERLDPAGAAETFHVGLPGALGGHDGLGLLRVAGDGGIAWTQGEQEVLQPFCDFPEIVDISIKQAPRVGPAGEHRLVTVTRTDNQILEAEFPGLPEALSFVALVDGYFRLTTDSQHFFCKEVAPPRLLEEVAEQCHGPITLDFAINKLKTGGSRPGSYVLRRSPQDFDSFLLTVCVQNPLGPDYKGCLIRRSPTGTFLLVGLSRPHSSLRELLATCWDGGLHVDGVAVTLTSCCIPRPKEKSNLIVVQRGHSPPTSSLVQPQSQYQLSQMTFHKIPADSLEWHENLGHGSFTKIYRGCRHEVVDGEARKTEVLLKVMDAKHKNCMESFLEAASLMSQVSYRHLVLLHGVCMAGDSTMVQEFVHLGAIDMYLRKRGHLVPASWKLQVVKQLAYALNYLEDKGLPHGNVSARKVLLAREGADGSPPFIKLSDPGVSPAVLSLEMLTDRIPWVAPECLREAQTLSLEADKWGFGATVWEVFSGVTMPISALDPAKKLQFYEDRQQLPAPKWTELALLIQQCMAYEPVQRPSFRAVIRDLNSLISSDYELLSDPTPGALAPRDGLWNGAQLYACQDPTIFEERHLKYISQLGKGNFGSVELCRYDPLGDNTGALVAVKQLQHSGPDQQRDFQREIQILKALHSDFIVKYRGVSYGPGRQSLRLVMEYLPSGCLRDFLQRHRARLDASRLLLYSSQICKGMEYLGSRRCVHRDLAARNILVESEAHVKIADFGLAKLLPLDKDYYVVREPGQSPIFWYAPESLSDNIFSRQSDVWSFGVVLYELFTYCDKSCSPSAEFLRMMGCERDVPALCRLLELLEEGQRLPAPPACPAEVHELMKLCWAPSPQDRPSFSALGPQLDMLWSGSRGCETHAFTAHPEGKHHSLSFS
Summary of the method: as §1

T1 sequence (P23458 whole entry): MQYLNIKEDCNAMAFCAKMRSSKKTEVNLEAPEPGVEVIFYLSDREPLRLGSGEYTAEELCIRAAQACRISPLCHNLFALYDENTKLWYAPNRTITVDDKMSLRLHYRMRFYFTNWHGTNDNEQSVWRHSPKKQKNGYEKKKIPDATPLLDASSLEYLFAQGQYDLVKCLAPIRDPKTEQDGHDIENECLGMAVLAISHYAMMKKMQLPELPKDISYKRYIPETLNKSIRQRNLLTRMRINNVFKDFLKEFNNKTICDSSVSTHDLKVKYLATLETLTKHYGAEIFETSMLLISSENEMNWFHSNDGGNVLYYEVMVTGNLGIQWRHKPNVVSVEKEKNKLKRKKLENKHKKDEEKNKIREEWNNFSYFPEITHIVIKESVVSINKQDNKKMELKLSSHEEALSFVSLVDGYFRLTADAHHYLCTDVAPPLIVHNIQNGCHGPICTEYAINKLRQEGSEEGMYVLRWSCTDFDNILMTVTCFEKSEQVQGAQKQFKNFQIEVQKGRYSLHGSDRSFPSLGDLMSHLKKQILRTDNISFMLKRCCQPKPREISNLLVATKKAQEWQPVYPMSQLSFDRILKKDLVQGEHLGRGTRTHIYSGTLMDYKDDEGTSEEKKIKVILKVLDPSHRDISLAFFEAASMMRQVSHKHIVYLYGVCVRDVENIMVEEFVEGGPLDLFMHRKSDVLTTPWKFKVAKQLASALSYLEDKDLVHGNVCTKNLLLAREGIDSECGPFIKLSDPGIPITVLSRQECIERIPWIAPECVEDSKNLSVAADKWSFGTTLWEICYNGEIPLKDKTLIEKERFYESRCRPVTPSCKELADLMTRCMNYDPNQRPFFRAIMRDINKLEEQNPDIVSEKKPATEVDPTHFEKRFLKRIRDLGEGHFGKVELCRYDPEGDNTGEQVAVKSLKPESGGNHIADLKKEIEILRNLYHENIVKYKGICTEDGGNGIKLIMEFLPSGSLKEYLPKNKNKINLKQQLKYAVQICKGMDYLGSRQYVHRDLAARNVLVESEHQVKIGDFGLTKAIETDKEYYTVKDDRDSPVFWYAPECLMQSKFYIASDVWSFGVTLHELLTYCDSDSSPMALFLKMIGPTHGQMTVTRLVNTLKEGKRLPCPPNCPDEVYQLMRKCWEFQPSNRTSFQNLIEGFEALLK

| Structure (SMILES) | JAK 1 (pKi) [1] | Tall-1 (pIC50) [2] | JAK 3 (pKi) [3] | JAK3 (pKi)-JAK1 (pKi) [3] | Ki [1] | IC50 [2] | Ki [3] |
| --- | --- | --- | --- | --- | --- | --- | --- |
| C=CC(=O)N1CC(Oc2nc(-c3ccc(O)cc3)nc3[nH]ncc23)C1 [Compound 5-20] | E (a pKi value of 7 or below (Ki of 100 nM or above)) | C (a pIC50 value between 6 and 6.7 (IC50 between 1 μM and 200 nM)) | B (a pKi value between 9 and 10 (Ki between 1 nM and 0.1 nM)) | A (a value of 3 or above) |  |  |  |
| C=CC(=O)N1CC(C)(Oc2cc(-c3ccc(O)c(F)c3)cc3[nH]ncc23)C1 [Compound 5-24] | E (a pKi value of 7 or below (Ki of 100 nM or above)) | B (a pIC50 value between 6.7 (included) and 7.5 (IC50 between 200 nM and 32 nM)) | B (a pKi value between 9 and 10 (Ki between 1 nM and 0.1 nM)) | A (a value of 3 or above) |  |  |  |
| CN(C)C/C=C/C(=O)N1CC(Oc2cc(-c3ccc(O)cc3)cc3[nH]ncc23)(C(F)(F)F)C1 [Compound 5-25] | E (a pKi value of 7 or below (Ki of 100 nM or above)) | A (a pIC50 value≥7.5 (IC50≤32 nM)) | B (a pKi value between 9 and 10 (Ki between 1 nM and 0.1 nM)) | A (a value of 3 or above) |  |  |  |
| C=CC(=O)N1CC(Oc2cc(-c3ccc(O)cc3)cc3[nH]ncc23)(C(F)(F)F)C1 [Compound 5-26] | E (a pKi value of 7 or below (Ki of 100 nM or above)) | C (a pIC50 value between 6 and 6.7 (IC50 between 1 μM and 200 nM)) | B (a pKi value between 9 and 10 (Ki between 1 nM and 0.1 nM)) | B (a value of 2.3 to 3) |  |  |  |
| CN(C)C/C=C/C(=O)N1CCC(Oc2cc(-c3ccc(O)cc3)cc3[nH]ncc23)CC1 [Compound 6-1] |  |  |  | B (a value of 2.3 to 3) | 10 to 100 nM | 31.6 to 200 nM | < 0.1 nM |
| C=CC(=O)N1CCC(C)(Oc2cc(-c3ccc(O)c(Cl)c3)cc3[nH]ncc23)CC1 [Compound 6-5] | E (a pKi value of 7 or below (Ki of 100 nM or above)) | A (a pIC50 value≥7.5 (IC50≤32 nM)) | B (a pKi value between 9 and 10 (Ki between 1 nM and 0.1 nM)) | A (a value of 3 or above) |  |  |  |
| C=CC(=O)N1CCC(C)(Oc2cc(-c3ccc(O)c(F)c3)cc3[nH]ncc23)CC1 [Compound 6-7] |  |  |  | A (a value of 3 or above) | > 100 nM | < 31.6 nM | 0.1 to 1 nM |
| C=CC(=O)N1CCC(Oc2cc(-c3ccc(O)cc3)cc3[nH]ncc23)C(F)(F)C1 (stereo not drawn) [Compound 6-8] |  |  |  | B (a value of 2.3 to 3) | 10 to 100 nM | < 31.6 nM | < 0.1 nM |
| C=CC(=O)N1CCC(Oc2cc(-c3ccc(O)cc3)nc3[nH]ncc23)CC1 [Compound 6-11] |  |  |  | A (a value of 3 or above) | > 100 nM | 31.6 to 200 nM | < 0.1 nM |
| C=CC(=O)N1CCC(Oc2nc(-c3ccc(O)cc3)nc3[nH]ncc23)CC1 [Compound 6-12] |  |  |  | A (a value of 3 or above) | > 100 nM | 31.6 to 200 nM | 0.1 to 1 nM |
| C=CC(=O)N1CCC(Oc2cc(-c3ccc(O)c(F)c3)cc3[nH]ncc23)CC1 [Compound 6-14] |  |  |  | B (a value of 2.3 to 3) | 10 to 100 nM | < 31.6 nM | < 0.1 nM |
| CN(C)C/C=C/C(=O)N1CCC(Oc2cc(-c3ccc(O)c(Cl)c3)cc3[nH]ncc23)CC1 [Compound 6-19] |  |  |  | B (a value of 2.3 to 3) | 10 to 100 nM | 31.6 to 200 nM | 0.1 to 1 nM |
| C=CC(=O)N1CCC(Oc2nc(-c3ccc(O)c(Cl)c3)nc3[nH]ncc23)CC1 [Compound 6-22] |  |  |  | A (a value of 3 or above) | > 100 nM | 200 to 1000 nM | 0.1 to 1 nM |
| C=CC(=O)N1CCC(Oc2nc(-c3ccc(O)c(F)c3)nc3[nH]ncc23)CC1 [Compound 6-23] |  |  |  | A (a value of 3 or above) | > 100 nM | 200 to 1000 nM | 0.1 to 1 nM |
| CN(C)C/C=C/C(=O)N1CCC(C)(Nc2cc(-c3ccc(O)cc3)cc3[nH]ncc23)CC1 [Compound 7-1] | E (a pKi value of 7 or below (Ki of 100 nM or above)) | C (a pIC50 value between 6 and 6.7 (IC50 between 1 μM and 200 nM)) | B (a pKi value between 9 and 10 (Ki between 1 nM and 0.1 nM)) | A (a value of 3 or above) |  |  |  |
| CN(C)C/C=C/C(=O)N1CCC(Nc2cc(-c3ccc(O)cc3)cc3[nH]ncc23)C(F)(F)C1 (stereo not drawn) [Compound 7-5] |  |  |  | C (a value of 1.8 to 2.3) | 10 to 100 nM | 31.6 to 200 nM | 0.1 to 1 nM |
| C=CC(=O)N1CCC(Nc2cc(-c3ccc(O)cc3)cc3[nH]ncc23)C(F)(F)C1 (stereo not drawn) [Compound 7-6] | D (a pKi value between 7 and 8 (Ki between 100 nM and 10 nM)) | A (a pIC50 value≥7.5 (IC50≤32 nM)) | A (a pKi value≥10 (Ki≤0.1 nM)) | B (a value of 2.3 to 3) |  |  |  |
| C=CC(=O)N1CCCC(Oc2cc(-c3ccc(O)cc3)nc3[nH]ncc23)C1 (stereo not drawn) [Compound 8-6] | E (a pKi value of 7 or below (Ki of 100 nM or above)) | B (a pIC50 value between 6.7 (included) and 7.5 (IC50 between 200 nM and 32 nM)) | B (a pKi value between 9 and 10 (Ki between 1 nM and 0.1 nM)) | A (a value of 3 or above) |  |  |  |
| C=CC(=O)N1CCCC(Oc2cc(-c3ccc(O)c(F)c3)nc3[nH]ncc23)C1 (stereo not drawn) [Compound 8-8] | E (a pKi value of 7 or below (Ki of 100 nM or above)) | B (a pIC50 value between 6.7 (included) and 7.5 (IC50 between 200 nM and 32 nM)) | A (a pKi value≥10 (Ki≤0.1 nM)) | A (a value of 3 or above) |  |  |  |
| CN(C)CC=CC(=O)N1CCCC(Oc2nc(-c3ccc(O)c(F)c3)cc3[nH]ncc23)C1 (stereo not drawn) [Compound 8-9] | E (a pKi value of 7 or below (Ki of 100 nM or above)) | C (a pIC50 value between 6 and 6.7 (IC50 between 1 μM and 200 nM)) | B (a pKi value between 9 and 10 (Ki between 1 nM and 0.1 nM)) | B (a value of 2.3 to 3) |  |  |  |
| C=CC(=O)N1CCC[C@H](Oc2nc(-c3ccc(O)c(Cl)c3)cc3[nH]ncc23)C1 [Compound 8-10] | D (a pKi value between 7 and 8 (Ki between 100 nM and 10 nM)) | A (a pIC50 value≥7.5 (IC50≤32 nM)) | A (a pKi value≥10 (Ki≤0.1 nM)) | A (a value of 3 or above) |  |  |  |
| C=CC(=O)N1CCC[C@H](Oc2nc(-c3ccc(O)c(Cl)c3)nc3[nH]ncc23)C1 [Compound 8-12] | E (a pKi value of 7 or below (Ki of 100 nM or above)) | C (a pIC50 value between 6 and 6.7 (IC50 between 1 μM and 200 nM)) | B (a pKi value between 9 and 10 (Ki between 1 nM and 0.1 nM)) | A (a value of 3 or above) |  |  |  |
| C=CC(=O)N1CCC[C@H](Oc2nc(-c3ccc(O)c(F)c3)nc3[nH]ncc23)C1 [Compound 8-13] | E (a pKi value of 7 or below (Ki of 100 nM or above)) | C (a pIC50 value between 6 and 6.7 (IC50 between 1 μM and 200 nM)) | B (a pKi value between 9 and 10 (Ki between 1 nM and 0.1 nM)) | A (a value of 3 or above) |  |  |  |
| CN(C)CC=CC(=O)N1C2CCC1CC(Oc1cc(-c3ccc(O)c(Cl)c3)cc3[nH]ncc13)C2 (stereo not drawn) [Compound 9-3] | E (a pKi value of 7 or below (Ki of 100 nM or above)) | C (a pIC50 value between 6 and 6.7 (IC50 between 1 μM and 200 nM)) | B (a pKi value between 9 and 10 (Ki between 1 nM and 0.1 nM)) | C (a value of 1.8 to 2.3) |  |  |  |
